Measured values published in BigSolDB 2.1.

CC(C)(Oc1ccc(CCNC(=O)c2ccc(Cl)cc2)cc1)C(=O)O
Settings | solubility (mole fraction)
in 2-butanone, 283.14 K | 0.00191
in 2-butanone, 288.16 K | 0.00227
in 2-butanone, 293.17 K | 0.00268
in 2-butanone, 298.16 K | 0.00312
in 2-butanone, 303.17 K | 0.0037
in 2-butanone, 308.14 K | 0.00436
in 2-butanone, 313.16 K | 0.00505
in 2-butanone, 318.17 K | 0.0058
in 2-butanone, 323.16 K | 0.00685
in acetonitrile, 283.24 K | 0.000113
in acetonitrile, 288.25 K | 0.000153
in acetonitrile, 293.24 K | 0.000202
in acetonitrile, 298.25 K | 0.000274
in acetonitrile, 303.24 K | 0.000355
in acetonitrile, 308.22 K | 0.00047
in acetonitrile, 313.22 K | 0.000625
in acetonitrile, 318.23 K | 0.000809
in acetonitrile, 323.24 K | 0.00103
in cyclohexanone, 283.14 K | 0.00496
in cyclohexanone, 288.19 K | 0.00605
in cyclohexanone, 293.24 K | 0.00732
in cyclohexanone, 298.14 K | 0.00891
in cyclohexanone, 303.27 K | 0.0107
in cyclohexanone, 308.13 K | 0.0128
in cyclohexanone, 313.19 K | 0.0152
in cyclohexanone, 318.22 K | 0.0177
in cyclohexanone, 323.22 K | 0.0204
in ethanol, 283.14 K | 0.00258
in ethanol, 288.24 K | 0.00282
in ethanol, 293.3 K | 0.00329
in ethanol, 298.28 K | 0.00391
in ethanol, 303.24 K | 0.00465
in ethanol, 308.22 K | 0.00538
in ethanol, 313.13 K | 0.00664
in ethanol, 318.18 K | 0.00802
in ethanol, 323.24 K | 0.00972
in ethyl acetate, 283.17 K | 0.000557
in ethyl acetate, 288.17 K | 0.000665
in ethyl acetate, 293.16 K | 0.000789
in ethyl acetate, 298.14 K | 0.000994
in ethyl acetate, 303.17 K | 0.0012
in ethyl acetate, 308.14 K | 0.00147
in ethyl acetate, 313.17 K | 0.00178
in ethyl acetate, 318.16 K | 0.0022
in ethyl acetate, 323.19 K | 0.00262
in isobutanol, 282.95 K | 0.00115
in isobutanol, 288.04 K | 0.0015
in isobutanol, 292.93 K | 0.00203
in isobutanol, 298.24 K | 0.0026
in isobutanol, 303.2 K | 0.00316
in isobutanol, 308.22 K | 0.00396
in isobutanol, 313.23 K | 0.00489
in isobutanol, 318.17 K | 0.00603
in isobutanol, 323.2 K | 0.00742
in isopentanol, 283.77 K | 0.00149
in isopentanol, 288.56 K | 0.00196
in isopentanol, 293.5 K | 0.00248
in isopentanol, 298.59 K | 0.00304
in isopentanol, 303.13 K | 0.00365
in isopentanol, 308.21 K | 0.00452
in isopentanol, 313.25 K | 0.00555
in isopentanol, 318.17 K | 0.00672
in isopentanol, 323.25 K | 0.00817
in isopropanol, 283.06 K | 0.00146
in isopropanol, 288.14 K | 0.00195
in isopropanol, 293.19 K | 0.00245
in isopropanol, 298.24 K | 0.00302
in isopropanol, 303.21 K | 0.00371
in isopropanol, 308.16 K | 0.00462
in isopropanol, 313.14 K | 0.0057
in isopropanol, 318.22 K | 0.00705
in isopropanol, 323.2 K | 0.00852
in methanol, 283.12 K | 0.00233
in methanol, 288.24 K | 0.00248
in methanol, 293.26 K | 0.00282
in methanol, 298.17 K | 0.00333
in methanol, 303.12 K | 0.00408
in methanol, 308.14 K | 0.00498
in methanol, 313.13 K | 0.00614
in methanol, 318.14 K | 0.00754
in methanol, 323.12 K | 0.00917
in methyl propionate, 283.19 K | 0.000428
in methyl propionate, 288.22 K | 0.000532
in methyl propionate, 293.23 K | 0.000651
in methyl propionate, 298.17 K | 0.000823
in methyl propionate, 303.23 K | 0.001
in methyl propionate, 308.14 K | 0.0012
in methyl propionate, 313.24 K | 0.00148
in methyl propionate, 318.16 K | 0.00182
in methyl propionate, 323.18 K | 0.00221
in n-butanol, 283.16 K | 0.00227
in n-butanol, 288.17 K | 0.0027
in n-butanol, 293.14 K | 0.00332
in n-butanol, 298.17 K | 0.00403
in n-butanol, 303.16 K | 0.00493
in n-butanol, 308.14 K | 0.00599
in n-butanol, 313.17 K | 0.00728
in n-butanol, 318.16 K | 0.00881
in n-butanol, 323.17 K | 0.0104
in n-butyl acetate, 283.17 K | 0.000327
in n-butyl acetate, 288.19 K | 0.000401
in n-butyl acetate, 293.2 K | 0.000494
in n-butyl acetate, 298.14 K | 0.000629
in n-butyl acetate, 303.19 K | 0.000779
in n-butyl acetate, 308.16 K | 0.000948
in n-butyl acetate, 313.14 K | 0.00113
in n-butyl acetate, 318.14 K | 0.00138
in n-butyl acetate, 323.2 K | 0.00167
in n-pentanol, 283.23 K | 0.00233
in n-pentanol, 288.23 K | 0.00286
in n-pentanol, 293.29 K | 0.00344
in n-pentanol, 298.5 K | 0.00408
in n-pentanol, 303.24 K | 0.00497
in n-pentanol, 308.02 K | 0.006
in n-pentanol, 313.08 K | 0.0072
in n-pentanol, 317.95 K | 0.00857
in n-pentanol, 322.74 K | 0.0103
in n-propanol, 283.13 K | 0.00239
in n-propanol, 288.18 K | 0.00289
in n-propanol, 293.27 K | 0.00351
in n-propanol, 298.53 K | 0.00421
in n-propanol, 303.33 K | 0.00517
in n-propanol, 308.23 K | 0.00617
in n-propanol, 313.37 K | 0.00729
in n-propanol, 318.35 K | 0.00856
in n-propanol, 323.26 K | 0.0104
in n-propyl acetate, 283.16 K | 0.000457
in n-propyl acetate, 288.24 K | 0.000548
in n-propyl acetate, 293.16 K | 0.000665
in n-propyl acetate, 298.18 K | 0.000819
in n-propyl acetate, 303.16 K | 0.001
in n-propyl acetate, 308.16 K | 0.00122
in n-propyl acetate, 313.18 K | 0.00146
in n-propyl acetate, 318.16 K | 0.00177
in n-propyl acetate, 323.16 K | 0.00214
in sec-butanol, 283.16 K | 0.0023
in sec-butanol, 288.17 K | 0.00294
in sec-butanol, 293.14 K | 0.00365
in sec-butanol, 298.16 K | 0.00444
in sec-butanol, 303.16 K | 0.0053
in sec-butanol, 308.14 K | 0.00642
in sec-butanol, 313.17 K | 0.00766
in sec-butanol, 318.16 K | 0.00914
in sec-butanol, 323.16 K | 0.0106
